Measurements: patent publication US20080234262A1 (Wyeth, priority 2007, published 2008)
Where two headings read alike, the source gives them in different places.

Legend:
PI3K = PI3K (Homo sapiens, UniProt P42336); test: Fluorescence polarization assay for PI3K; format: biochemical;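 further: PI3K kinase reaction on PIP2 with ATP, 30-60 min, product sensed by GST-GRP with red probe in fluorescence polarization (mP), controls without enzyme and at zero time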
prostate line LNCap = test: In vitro cell culture growth assay (MTS), LNCap; format: cell-based, human; conditions: Homo sapiens, 72 h, LNCap cells, three days after drug treatment
breast line MDA468 = test: In vitro cell culture growth assay (MTS), MDA468; format: cell-based, human; conditions: Homo sapiens, 72 h, MDA468 cells, three days after drug treatment
Method in brief: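 MDA468 or LNCap cells received inhibitors one day after plating and were grown for three days. Viable cell density read by MTS conversion, absorbance 490 nm, expressed as percent of control growth versus vehicle-treated cells on the same plate.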

PI3K, sequence (P42336 whole entry): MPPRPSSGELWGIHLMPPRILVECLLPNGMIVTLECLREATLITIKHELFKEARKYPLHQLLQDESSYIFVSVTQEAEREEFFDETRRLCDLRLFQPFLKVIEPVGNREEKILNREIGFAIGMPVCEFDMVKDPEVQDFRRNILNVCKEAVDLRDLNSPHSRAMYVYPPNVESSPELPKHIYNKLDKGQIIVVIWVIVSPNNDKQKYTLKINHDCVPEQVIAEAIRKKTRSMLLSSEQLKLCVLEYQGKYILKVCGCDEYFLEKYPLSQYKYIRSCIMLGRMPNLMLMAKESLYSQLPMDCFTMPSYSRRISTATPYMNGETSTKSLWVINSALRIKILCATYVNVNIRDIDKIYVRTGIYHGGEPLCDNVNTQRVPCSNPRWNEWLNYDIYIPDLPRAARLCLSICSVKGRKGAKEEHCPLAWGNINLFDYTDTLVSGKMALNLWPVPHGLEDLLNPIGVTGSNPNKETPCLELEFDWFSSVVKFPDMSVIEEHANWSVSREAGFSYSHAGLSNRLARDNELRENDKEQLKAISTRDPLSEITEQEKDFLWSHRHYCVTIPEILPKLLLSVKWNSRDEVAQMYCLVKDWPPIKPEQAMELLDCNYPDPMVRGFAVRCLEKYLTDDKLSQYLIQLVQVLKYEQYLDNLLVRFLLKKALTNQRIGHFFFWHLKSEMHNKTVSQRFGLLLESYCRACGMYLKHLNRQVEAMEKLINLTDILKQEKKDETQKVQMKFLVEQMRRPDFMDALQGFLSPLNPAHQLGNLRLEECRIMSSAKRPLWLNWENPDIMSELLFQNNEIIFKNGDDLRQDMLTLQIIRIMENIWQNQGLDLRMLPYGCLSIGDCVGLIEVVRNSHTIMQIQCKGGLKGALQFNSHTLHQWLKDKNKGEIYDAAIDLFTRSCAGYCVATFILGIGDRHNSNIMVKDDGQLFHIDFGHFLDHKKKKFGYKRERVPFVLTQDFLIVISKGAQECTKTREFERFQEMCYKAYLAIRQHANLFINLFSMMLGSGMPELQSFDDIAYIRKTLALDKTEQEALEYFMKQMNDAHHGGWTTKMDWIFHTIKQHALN
PI3K, sequence (P27986 whole entry partner): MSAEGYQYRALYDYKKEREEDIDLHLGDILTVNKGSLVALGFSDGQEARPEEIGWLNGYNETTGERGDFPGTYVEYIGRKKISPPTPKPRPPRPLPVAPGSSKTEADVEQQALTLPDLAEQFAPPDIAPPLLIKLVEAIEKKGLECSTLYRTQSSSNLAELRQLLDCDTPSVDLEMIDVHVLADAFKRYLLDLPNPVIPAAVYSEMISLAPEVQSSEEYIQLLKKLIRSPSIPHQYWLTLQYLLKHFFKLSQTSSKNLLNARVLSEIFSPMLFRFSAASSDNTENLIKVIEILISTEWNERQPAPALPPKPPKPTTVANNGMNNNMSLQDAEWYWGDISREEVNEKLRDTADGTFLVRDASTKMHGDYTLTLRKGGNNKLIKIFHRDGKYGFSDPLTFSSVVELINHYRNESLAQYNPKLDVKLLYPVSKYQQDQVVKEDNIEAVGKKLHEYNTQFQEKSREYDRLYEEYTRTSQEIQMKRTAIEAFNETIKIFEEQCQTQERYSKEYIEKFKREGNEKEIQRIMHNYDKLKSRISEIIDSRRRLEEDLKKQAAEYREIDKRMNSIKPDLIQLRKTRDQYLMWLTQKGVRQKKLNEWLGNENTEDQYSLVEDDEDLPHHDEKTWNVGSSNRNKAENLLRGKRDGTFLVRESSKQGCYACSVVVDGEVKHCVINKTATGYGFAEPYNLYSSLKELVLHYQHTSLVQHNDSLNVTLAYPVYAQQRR

| SMILES | IC50 (PI3K; PI3Kα, read-out: PI3Kα IC50) | IC50 (prostate line LNCap; LNCaP) | IC50 (breast line MDA468) | IC50 (PI3K; PI3Kα IC50, PI3Kα) | IC50 (prostate line LNCap) |
| --- | --- | --- | --- | --- | --- |
| COC(=O)N1CCC(n2ncc3c(N4CCOCC4)nc(-c4ccc(N/C(=N/C#N)Oc5ccccc5)cc4)nc32)CC1 [Compound 949, methyl 4-[6-(4-{[(Z)-(cyanoimino)(phenoxy)methyl]amino}phenyl)-4-morpholin-4-yl-1H-pyrazolo[3,4-d]pyrimidin-1-yl]piperidine-1-carboxylate] | 1890 nM | 9800 nM | 25000 nM |  |  |
| COC(=O)N1CCC(n2ncc3c(N4CCOCC4)nc(-c4ccc(NC(=O)Oc5ccc(Cl)cc5)cc4)nc32)CC1 [Compound 950, methyl 4-[6-(4-{[(4-chlorophenoxy)carbonyl]amino}phenyl)-4-morpholin-4-yl-1H-pyrazolo[3,4-d]pyrimidin-1-yl]piperidine-1-carboxylate] |  |  | 17000 nM | 9010 nM | 4900 nM |
| CC(C)(C)OC(=O)N1CCC(n2ncc3c(N4CCOCC4)nc(-c4ccc(NC(=O)Nc5ccc(F)nc5)cc4)nc32)CC1 [Compound 952, tert-butyl 4-[6-(4-{[(6-fluoropyridin-3-yl)carbamoyl]amino}phenyl)-4-morpholin-4-yl-1H-pyrazolo[3,4-d]pyrimidin-1-yl]piperidine-1-carboxylate] | 130 nM | 60 nM | 750 nM |  |  |
| CC(C)(C)OC(=O)N1CCC(n2ncc3c(N4CCOCC4)nc(-c4ccc(NC(=O)Nc5ccc(CO)cc5)cc4)nc32)CC1 [Compound 953, tert-butyl 4-{6-[4-({[4-(hydroxymethyl)phenyl]carbamoyl}amino)phenyl]-4-morpholin-4-yl-1H-pyrazolo[3,4-d]pyrimidin-1-yl}piperidine-1-carboxylate] | 7 nM | 0.8 nM | 14 nM |  |  |
| CC(C)(C)OC(=O)N1CCC(n2ncc3c(N4CCOCC4)nc(-c4ccc(NC(=O)Nc5ccc(CCO)cc5)cc4)nc32)CC1 [Compound 954, tert-butyl 4-{6-[4-({[4-(2-hydroxyethyl)phenyl]carbamoyl}amino)phenyl]-4-morpholin-4-yl-1H-pyrazolo[3,4-d]pyrimidin-1-yl}piperidine-1-carboxylate] | 10 nM | 9 nM | 100 nM |  |  |
| CCn1nc(C#CCN(C)C)c2c(N3CCOCC3)nc(-c3ccc(NC(=O)NC)cc3)nc21 [Compound 955, 1-(4-{3-[3-(dimethylamino)prop-1-yn-1-yl]-1-ethyl-4-morpholin-4-yl-1Hpyrazolo[3,4-d]pyrimidin-6-yl}phenyl)-3-methylurea] | 25 nM | 180 nM | 500 nM |  |  |
| CCn1nc(C#CCO)c2c(N3CCOCC3)nc(-c3ccc(NC(=O)Nc4cccnc4)cc3)nc21 [Compound 956, 1-{4-[1-ethyl-3-(3-hydroxyprop-1-yn-1-yl)-4-morpholin-4-yl-1H-pyrazolo[3,4-d]pyrimidin-6-yl]phenyl}-3-pyridin-3-ylurea] | 1.75 nM | 47 nM | 90 nM |  |  |
| Oc1cccc(-c2nc(N3CCCOCC3)c3cnn(-c4ccccc4)c3n2)c1 [Compound 962, 3-[4-(1,4-oxazepan-4-yl)-1-phenyl-1H-pyrazolo[3,4-d]pyrimidin-6-yl]phenol] | 1090 nM | 6000 nM | 12000 nM |  |  |
| COc1ccc(-c2nc(N3CCOCC3)c3cnn(-c4ccccc4)c3n2)cn1 [Example 4] | 5500 nM | 20000 nM | 38000 nM |  |  |
| Oc1cccc(-c2nc(N3CCOCC3)c3cnn(C4CCN(CC5CC5)CC4)c3n2)c1 [Example 13] | 34 nM | 270 nM | 1500 nM |  |  |
| Oc1cccc(-c2nc(N3CCOCC3)c3cnn(C4CCN(Cc5ccc[nH]5)CC4)c3n2)c1 [Example 14] | 20 nM | 110 nM | 600 nM |  |  |
| Cc1ccc(CN2CCC(n3ncc4c(N5CCOCC5)nc(-c5cccc(O)c5)nc43)CC2)s1 [Example 18] | 22 nM | 220 nM | 1300 nM |  |  |
| COc1ccc(CN2CCC(n3ncc4c(N5CCOCC5)nc(-c5cccc(O)c5)nc43)CC2)cc1O [Example 20] | 21 nM | 130 nM | 700 nM |  |  |
| O=C(C1CC1)N1CCC(n2ncc3c(N4CCOCC4)nc(-c4cccc(O)c4)nc32)CC1 [Example 21] | 98 nM | 500 nM | 1400 nM |  |  |
| O=C(c1ccco1)N1CCC(n2ncc3c(N4CCOCC4)nc(-c4cccc(O)c4)nc32)CC1 [Example 22] | 31 nM | 300 nM | 900 nM |  |  |
| O=C(c1ccc(Cl)nc1)N1CCC(n2ncc3c(N4CCOCC4)nc(-c4cccc(O)c4)nc32)CC1 [Example 23] | 63 nM | 150 nM | 800 nM |  |  |

| SMILES | IC50 (PI3K; PI3Kα, read-out: PI3Kα IC50) | IC50 (prostate line LNCap; LNCaP) | IC50 (breast line MDA468) | IC50 (PI3K; PI3Kα IC50, PI3Kα) | IC50 (prostate line LNCap) |
| --- | --- | --- | --- | --- | --- |
| O=C(C1CCCCC1)N1CCC(n2ncc3c(N4CCOCC4)nc(-c4cccc(O)c4)nc32)CC1 [Example 26] | 68 nM | 1300 nM | 4000 nM |  |  |
| CC(C)C(=O)N1CCC(n2ncc3c(N4CCOCC4)nc(-c4cccc(O)c4)nc32)CC1 [Example 29] | 59 nM | 400 nM | 1200 nM |  |  |
| COc1cccc(-c2nc(N3CCOCC3)c3cnn(C4CCN(Cc5ccccc5)CC4)c3n2)c1 [Example 32] | 1440 nM | 8800 nM | 10000 nM |  |  |
| COCC(=O)N1CCC(n2ncc3c(N4CCOCC4)nc(-c4ccc5[nH]ccc5c4)nc32)CC1 [Example 40] | 3750 nM | 800 nM | 900 nM |  |  |
| c1ccc2cc(-c3nc(N4CCOCC4)c4cnn(C5CCNCC5)c4n3)ccc2c1 [Example 44] | 11000 nM | 1700 nM | 1400 nM |  |  |
| c1ccc(CN2CCC(n3ncc4c(N5CCOCC5)nc(-c5ccc6[nH]ccc6c5)nc43)CC2)cc1 [Example 45] | 1010 nM | 1400 nM | 1900 nM |  |  |
| COc1cccc(C(=O)N2CCC(n3ncc4c(N5CCOCC5)nc(-c5ccc6[nH]ccc6c5)nc43)CC2)c1 [Example 48] | 780 nM | 590 nM | 2300 nM |  |  |
| O=C(c1ccccn1)N1CCC(n2ncc3c(N4CCOCC4)nc(-c4ccc5[nH]ccc5c4)nc32)CC1 [Example 51] | 1100 nM | 340 nM | 1700 nM |  |  |
| Cc1ccc(C(=O)N2CCC(n3ncc4c(N5CCOCC5)nc(-c5ccc6[nH]ccc6c5)nc43)CC2)cc1 [Example 53] | 846 nM | 220 nM | 3900 nM |  |  |
| Fc1ccc(CN2CCC(n3ncc4c(N5CCOCC5)nc(-c5ccc6[nH]ccc6c5)nc43)CC2)cc1 [Example 55] | 686 nM | 2500 nM | 3000 nM |  |  |
| Cc1ccc(CN2CCC(n3ncc4c(N5CCOCC5)nc(-c5ccc6[nH]ccc6c5)nc43)CC2)cc1 [Example 56] | 425 nM | 2000 nM | 2700 nM |  |  |
| CN(C)c1ccc(CN2CCC(n3ncc4c(N5CCOCC5)nc(-c5ccc6[nH]ccc6c5)nc43)CC2)cc1 [Example 58] | 428 nM | 1200 nM | 1500 nM |  |  |
| c1ccc(CN2CCC(n3ncc4c(N5CCOCC5)nc(-c5cccc6[nH]ccc56)nc43)CC2)cc1 [Example 59] | 239 nM | 500 nM | 2600 nM |  |  |
| c1ccc(CN2CCC(n3ncc4c(N5CCOCC5)nc(-c5cc6ccccc6s5)nc43)CC2)cc1 [Example 67] | 2910 nM | 10000 nM | 12000 nM |  |  |
| CN(C)S(=O)(=O)c1cccc(-c2nc(N3CCOCC3)c3cnn(C4CCN(Cc5ccccc5)CC4)c3n2)c1 [Example 69] | 10500 nM | 3100 nM | 4000 nM |  |  |
